Laboratory results taken from patent US20240041898A9, “NEUROSTEROIDS AND ENANTIOMERS THEREOF FOR THE PREVENTION AND TREATMENT OF NEURODEGENERATIVE CONDITIONS” (priority 2019, published 2024).
Where “and” joins values, the source holds several entries; their conditions need not be identical. Equal entries are not always repeated.

Test system: TUNEL-positive RGCs
Experiment: Rat in vivo OHT model, TUNEL staining
Details: OHT eyes, intravitreal, three weeks after bead injection; single values
Method: Example 7. Rat in vivo OHT model induced by intracameral injection of microbeads—For induction of ocular hypertension (OHT) in vivo, sterile 6 μm polystyrene microbeads were injected into the anterior chamber of the left eye of each animal using a single-step, sclero-corneal tunnel approach with a 35G nanoneedle (FIG. 4A). […] After stabilization of elevated IOP, animals were randomly divided into 3 groups (non-treated OHT, AlloP injection, and ent-AlloP injection). AlloP and ent-AlloP were administered as a one-time intravitreal injection one week following bead injection. Non-treated OHT animals received sterile vehicle intravitreally. […]
Apoptosis—To visualize apoptotic cells, a DeadEnd™ Colorimetric TUNEL (TdT-mediated dUTP Nick-End Labeling) System (Promega, Madison, WI) was used according to the manufacturer's instructions. […] After the length of each retinal section was measured (Image-Pro Plus software), the cells were counted in the whole section length and the number of cells was normalized per 200 μm of retinal section. The number of apoptotic cells was evaluated by Dunnett's multiple comparison test to determine changes in the density of apoptotic cells among experimental retinas treated with 1 μM AlloP or 1 μM ent-AlloP at 75 mmHg and control retinas incubated with aCSF at 75 mmHg. […]

For CC(=O)[C@H]1CC[C@H]2[C@@H]3CC[C@H]4C[C@H](O)CC[C@]4(C)[C@H]3CC[C@]12C [AlloP, allopregnanolone], the “TUNEL staining (FIG. 4I), number of TUNEL-positive RGCs, individual 1-5” value was 1 per 200 μm of retinal sections (2×) and 0 per 200 μm of retinal sections (3×).

CC(=O)[C@@H]1CC[C@@H]2[C@H]3CC[C@@H]4C[C@@H](O)CC[C@@]4(C)[C@@H]3CC[C@]21C [ent-AlloP, ent-allopregnanolone] was tested, and the “TUNEL staining (FIG. 4I), number of TUNEL-positive RGCs, individual 1-5” value was 1 per 200 μm of retinal sections (2×) and 0 per 200 μm of retinal sections (3×).
